Measured values published in patent publication US9145375B2, “Quinazolinone compounds” (PRANA BIOTECHNOLOGY LIMITED, priority 2008, dated 2015).
“And” between values parts separate entries of the source, which are not always exact repeats. Equal values may be shown once.

Tests used:
[1] = molecular target: T1, CYP2C19 (Homo sapiens, UniProt P33261); test: CYP450 isoform inhibition, recombinant enzymes, analysis by LCMS: CYP2C19; type: in vitro ADME
T1 construct: using a specific substrate approach in human liver microsomes; from tissue; host or cells: human liver microsomes
Method: (§1) CYP450 Isoform Inhibition
(§2) Microsomes containing individual recombinant human CYP450 enzymes (Supersomes™) were incubated in the presence of a fixed concentration of a probe substrate that forms a fluorescent metabolite upon CYP450-mediated metabolism.
(§3) A known inhibitor of each CYP450 isoform was included in each assay as a positive control and its IC50 was compared to literature values for acceptance of the assay.
(§4) The inherent fluorescence of the test compound was examined under the specific assay conditions for each isoform before and after the fluorometric assay to identify any compound-specific interference due to the parent compound or metabolic products. If the background fluorescence in these samples increased due to compound-specific interference, then the CYP450 inhibition samples were quantified using LC/MS assay.

[2] = molecular target: T2, CYP1A2 (Homo sapiens, UniProt P05177); test: CYP450 isoform inhibition, recombinant enzymes, analysis by LCMS: CYP1A2; type: in vitro ADME
T2 construct: using a specific substrate approach in human liver microsomes; from tissue; host or cells: human liver microsomes
T2 sequence (P05177 1-516): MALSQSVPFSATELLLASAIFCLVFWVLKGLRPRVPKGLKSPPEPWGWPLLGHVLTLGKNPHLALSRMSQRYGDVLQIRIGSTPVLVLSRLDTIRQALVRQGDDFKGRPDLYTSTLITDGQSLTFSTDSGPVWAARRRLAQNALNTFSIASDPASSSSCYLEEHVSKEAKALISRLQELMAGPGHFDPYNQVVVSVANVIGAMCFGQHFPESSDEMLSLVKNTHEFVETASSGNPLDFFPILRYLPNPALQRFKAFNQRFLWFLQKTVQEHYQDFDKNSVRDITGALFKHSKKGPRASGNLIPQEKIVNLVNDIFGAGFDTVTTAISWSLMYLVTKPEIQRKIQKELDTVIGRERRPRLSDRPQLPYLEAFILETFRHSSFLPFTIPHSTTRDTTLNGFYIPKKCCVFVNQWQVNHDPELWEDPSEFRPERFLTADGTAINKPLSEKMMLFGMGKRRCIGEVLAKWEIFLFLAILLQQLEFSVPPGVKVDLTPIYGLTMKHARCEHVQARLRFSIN
Method: as §1, §2, §3, §4

[3] = molecular target: CYP3A4 (Homo sapiens, UniProt P08684); test: CYP450 isoform inhibition, recombinant enzymes, analysis by LCMS: CYP3A4; type: in vitro ADME; design: purchased
Method: as §1, §2, §3, §4

[4] = Plasma Protein Binding, mouse; type: in vitro ADME
[5] = Plasma Protein Binding, rat; type: in vitro ADME
[6] = test system: M17; test: Cytotox (% viable), cells marked M17; type: cell-based, human; settings: repeat values given
[7] = test system: M17 human neuroblastoma cells; test: Metal Uptake Assay (metal transport); type: cell-based; settings: 10 μM Cu + 10 μM compound, 5 hours
Method: Assay 3. Metal Uptake Assay
M17 human neuroblastoma cells are plated out on 6 well plates and left overnight. Enough cells are added to give approximately 70% confluent the following day of the experiment. Test compounds are added to media and mixed with equi-molar amounts of CuCl2 solution. A=10 μM Cu+10 μM MPAC; B=10 μM Cu+10 μM MPAC.
Cells are incubated in 1 ml of media/MPAC/Cu mix for 5 hours at 37° C. At the end of the incubation the media is removed with a vacuum aspirator and 1 ml of PBS added to dislodge the cells. Cells are then put into Eppendorf tubes and pelleted. The PBS is removed and the remaining cell pellets are frozen at −20 C.
The cell pellets are prepared as follows:
Received cell pellets of similar levels in 1.5 ml microfuge tubes. Added 50 μl of concentrated Nitric Acid (Aristar, BDH) to each cell pellet and allowed them to digest over night. Heated the samples for 20 min at 90° C. to complete the digestion. The volume of each sample was reduced to ˜45 ul after digestion. Added 1 ml of the 1% Nitric Acid diluent to each sample. (referred to as the “preparation solution” samples).
Measurements were made using a Varian UltraMass ICPMS instrument under operating conditions suitable for routine multi-element analysis.
The instrument was calibrated using Blank, 10, 50 and 100 ppb of a certified multi-element ICPMS standard solution (ICP-MS—CAI2-1, Accustandard) for Fe, Cu and Zn in 1% nitric acid. Used an certified internal standard solution containing 100 ppb Yttrium (Y 89) as an internal control (ICP-MS—IS-MIX1-1, Accustandard).

[8] = test system: Neuronal cortical cells; test: Cytotox (% viable); Primary Neuronal Cells Neurotoxicity Assay; type: cell-based, mouse; settings: cell type not given, repeat values given
Method: Assay 2 (a). Primary Neuronal Cells Neurotoxicity Assays
Cortical cultures were prepared as previously described (White et al., 1998). Embryonic day 14 BL6Jx129sv mouse cortices were removed, dissected free of meninges and dissociated in 0.025% (wt/vol) trypsin. Dissociated cells were plated in 48 well culture plates at a density of 2×10^6 cells/mL in MEM with 25% (vol/vol) FCS and 5% (vol/vol) HS and incubated at 37° C., 2 hrs. Media was then replaced with Neurobasal media (Invitrogen Life Technologies) and B27 supplements (Invitrogen Life Technologies). Cultures were maintained at 37° C. in 5% CO2. Prior to experimentation, the culture medium was replaced with Neurobasal media and B27 minus antioxidants (Invitrogen Life Technologies).
Neuronal cortical cells were cultured for five days as per Assay 2 in NB media and B27 supplement.
On day six the test compounds were added to the neuronal cell cultures in NB media and B27 supplement minus antioxidants.
Test compounds were dissolved in 100% DMSO to a concentration of 2.5 mM (10 mM if excess compound was weighed out per vial—then diluted to 2.5 mM). 2.5 mM stock solution was serially diluted 1 in 10 to give working solutions of 250 uM, 25 uM, 2.5 uM. Test compounds were not added directly to cells, instead they were added to a 48 well ‘Drug Plate’ as comprised below: • Preparation of “Drug Plate”:
Well 1: 576 ul NB+B27 (no antioxidant)*+24 ul 2.5 uM test compound
Well 2: 576 ul NB+B27 (no antioxidant)+24 μl 25 uM test compound
Well 3: 576 ul NB+B27 (no antioxidant)+24 ul 250 uM test compound
Well 4: 576 ul NB+B27 (no antioxidant)+24 ul 2.5 uM test compound
Well 5: 576 ul NB+B27 (no antioxidant)+24 ul 25 uM test compound
Well 6: 576 ul NB+B27 (no antioxidant)+24 ul 250 uM test compound
Well 7: 576 ul NB+B27 (no antioxidant)+24 ul test compound diluent**
Well 8: 600 ul NB+B27 (no antioxidant)
The Drug Plate was incubated at 37° C. for 15 mins. 200 ul of each well was added in triplicate to the corresponding cell plate. The cell plate was incubated at 37° C., for 4 days, (2 compounds are tested on each plate of cells).
*NB media and B27 (no antioxidants),
**PBT diluent 10% DMSO in NB+1327 (no antioxidants)
On completion of the assay, 1/10 volume MTS was added per well of plate (ie 25 ul/250 ul). The plates were incubated at 37° C. for 2 hrs, and then absorbance was read at 560 nm.

Chain of CYP3A4 (P08684 whole entry, canonical isoform): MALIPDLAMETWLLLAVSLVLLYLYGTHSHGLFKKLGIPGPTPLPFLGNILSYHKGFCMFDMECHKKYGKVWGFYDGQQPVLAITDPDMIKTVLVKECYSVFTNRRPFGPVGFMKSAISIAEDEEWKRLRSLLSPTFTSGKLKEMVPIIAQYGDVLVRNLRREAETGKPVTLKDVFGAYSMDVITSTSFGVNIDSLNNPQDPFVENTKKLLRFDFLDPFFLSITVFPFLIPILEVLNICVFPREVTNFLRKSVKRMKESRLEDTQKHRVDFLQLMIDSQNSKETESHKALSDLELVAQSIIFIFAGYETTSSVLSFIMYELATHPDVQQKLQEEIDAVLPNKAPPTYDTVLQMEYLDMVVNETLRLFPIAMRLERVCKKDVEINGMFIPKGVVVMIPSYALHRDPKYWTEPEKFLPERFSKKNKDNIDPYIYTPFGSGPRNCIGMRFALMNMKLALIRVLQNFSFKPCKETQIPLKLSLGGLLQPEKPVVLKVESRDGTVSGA
T1 sequence (P33261 whole entry, canonical isoform): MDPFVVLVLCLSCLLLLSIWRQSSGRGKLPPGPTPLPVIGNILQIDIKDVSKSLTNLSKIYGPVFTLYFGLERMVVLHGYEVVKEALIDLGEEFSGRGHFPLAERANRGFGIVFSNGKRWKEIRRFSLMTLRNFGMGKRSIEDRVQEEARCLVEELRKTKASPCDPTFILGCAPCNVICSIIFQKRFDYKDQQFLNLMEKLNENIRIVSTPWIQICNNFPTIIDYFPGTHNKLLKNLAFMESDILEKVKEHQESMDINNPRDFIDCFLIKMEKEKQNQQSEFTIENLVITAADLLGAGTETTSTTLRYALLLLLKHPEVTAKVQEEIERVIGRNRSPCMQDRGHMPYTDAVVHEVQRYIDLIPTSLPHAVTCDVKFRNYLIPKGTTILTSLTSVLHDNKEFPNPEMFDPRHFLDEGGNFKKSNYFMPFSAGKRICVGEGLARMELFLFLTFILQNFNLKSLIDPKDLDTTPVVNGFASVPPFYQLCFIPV

Structure (SMILES) | Metal transport [7] | Cytotox (% viable at 1 uM) [8] | Cytotox (% viable at 10 uM) [8] | other results
CNCc1nc2c(O)c(Cl)cc(Cl)c2c(=O)n1C [Compound F4161] |  |  |  | IC50 [1]: > 40 µM; IC50 [2]: 25.7 µM; IC50 [3]: 13.8 µM
CCn1c(CN(C)C)nc2c(O)c(Cl)cc(Cl)c2c1=O.Cl [Compound F4268] |  |  |  | fraction unbound [4]: 0.178 to 0.203; fraction unbound [5]: 0.052 to 0.055
CN(C)Cc1nc2c(O)c(Cl)cc(Cl)c2c(=O)n1C [Compound F4269, 5,7-Dichloro-2-(dimethylamino)methyl-8-hydroxy-3-methylquinazolin-4(3H)-one] |  |  |  | fraction unbound [4]: 0.582 to 0.658; fraction unbound [5]: 0.074 to 0.116
CCN(CC)Cc1nc2c(O)c(Cl)cc(Cl)c2c(=O)n1CC1CC1 [Compound F4385] | Metal transport 9% |  |  | Cytotox (% viable at 1 uM) [6]: 99.2% and 105.0%; Cytotox (% viable at 10 uM) ([6]; 10 uM): 97.7%
C#CCN(C)Cc1nc2c(O)c(Cl)cc(Cl)c2c(=O)n1CC1CC1 [Compound F4387] | Metal transport 111% |  |  | Cytotox (% viable at 1 uM) [6]: 104.0% and 92.7% and 95.9% and 100.7%
Br.CCn1c(CNC)nc2c(O)c(Cl)cc(Cl)c2c1=O [Compound F4486] | Metal transport 14% | 97.9% and 101.4% | 52.2% and 43.3% | 
CCNCc1nc2c(O)c(Cl)cc(Cl)c2c(=O)n1CC [Compound F4495] | Metal transport 8% | 89.3% and 112.8% | 47.9% and 57.1% | 
Br.CCNCc1nc2c(O)c(Cl)cc(Cl)c2c(=O)n1C [Compound F4496] | Metal transport 7% | 102.7% and 114.6% | 59.4% and 101.2% | 
